The target in the assay is 15-PGDH/HPGD (Homo sapiens (Human), UniProt P15428). Nature of the assay: hPGDH inhibitor screening biochemical assay. The settings on record: 10 nM 15-PGDH/HPGD, 15 μM PGE2, 0.25 mM NAD; read-out: hPGDH: Average IC50. As for the experimental part: A hydroxyprostaglandin dehydrogenase inhibition screening biochemical assay can be performed to assess the synthesized inhibitors provided herein. Provided herein is an exemplary biochemical assay for hPGDH inhibitor screening.
Sequence of 15-PGDH/HPGD (P15428 whole entry): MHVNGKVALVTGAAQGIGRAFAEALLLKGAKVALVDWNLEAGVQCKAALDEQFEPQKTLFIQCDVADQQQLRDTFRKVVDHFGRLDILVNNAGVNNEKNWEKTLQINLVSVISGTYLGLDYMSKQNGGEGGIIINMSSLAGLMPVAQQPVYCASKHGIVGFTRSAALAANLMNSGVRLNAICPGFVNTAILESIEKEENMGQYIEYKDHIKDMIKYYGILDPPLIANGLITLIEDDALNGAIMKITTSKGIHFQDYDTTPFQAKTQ
The in vitro biochemical assay can be performed in white, 384 plates in total 20 μl reaction volume consisting of 10 nM of 15-PGDH/HPGD (R&D System #5660-DH), 15 μM Prostaglandin E2 (Sigma, Cat #P5640-10MG) and 0.25 mM β-Nicotinamide adenine dinucleotide sodium salt (Sigma, Cat #N0632-5G) made in reaction buffer (50 mM Tris-HCl, pH 7.5, 0.01% Tween 20) at 10-point dose response curve for test/tool compounds. Briefly, 5 μl (4×) of compounds solution and 5 μl (final concentration, 10 nM) of enzyme solution is added to white 384 well plates and incubated for 10 mins at 37° C. 5 μl (4×) of Prostaglandin E2 and 5 μl (4×) of β-Nicotinamide adenine dinucleotide sodium salt is added to the wells and incubated for 10 mins at rt. Fluorescence is recorded at ex/em=340 nm/485 nm. The percentage (%) inhibition of enzyme activity was determined relative to […] (1% DMSO) and IC50 was calculated using GraphPad prism software (four parameter-variable slope equation).

The structures appear in SMILES notation.

For orientation: IC50 means the midpoint of a concentration-inhibition curve.

As to `O=C(c1ccc2c(cnn2-c2cccc(Cl)c2)c1)N1CCCCC1` [A-93, (1-(3-chlorophenyl)-1H-indazol-5-yl)(piperidin-1-yl)methanone], the IC50 was under 0.1 µM.
For the compound `O=C(c1ccn2c(-c3cccc(Cl)c3)cnc2c1)N1CCCCC1` [A-94, (3-(3-chlorophenyl)imidazo[1,2-a]pyridin-7-yl)(piperidin-1-yl)methanone], the IC50 is under 0.1 µM.
For `O=C(c1ccc2c(c1)nnn2-c1cccc(Cl)c1)N1CCCCC1` [A-95, (1-(3-chlorophenyl)-1H-benzo[d][1,2,3]triazol-5-yl)(piperidin-1-yl)methanone], the 50% inhibitory concentration (IC50) was under 0.1 µM.
The same measure for `O=C(c1cnc2c(-c3cccc(Cl)c3)cnn2c1)N1CCCCC1` [A-96, (3-(3-chlorophenyl)pyrazolo[1,5-a]pyrimidin-6-yl)(piperidin-1-yl)methanone]: under 0.1 µM; for `Cc1c(C(=O)N2CCC(F)CC2)cnc2c1ccn2-c1cnccn1` [A-97, (4-fluoropiperidin-1-yl)(4-methyl-1-(pyrazin-2-yl)-1H-pyrrolo[2,3-b]pyridin-5-yl)methanone]: under 0.1 µM.
For `CS(=O)(=O)n1ccc2cc(C(=O)N3CCCCC3)cnc21` [A-110, (1-(methylsulfonyl)-1H-pyrrolo[2,3-b]pyridin-5-yl)(piperidin-1-yl)methanone], the IC50 was at least 1 µM.
On to `Cc1ccc(S(=O)(=O)n2ccc3cc(C(=O)N4CCCCC4)cnc32)cc1` [A-111, piperidin-1-yl(1-tosyl-1H-pyrrolo[2,3-b]pyridin-5-yl)methanone], for which the IC50 is at least 1 µM.
For `O=C(c1cnc2c(ccn2-c2ccn3ccnc3c2)c1)N1CCCCC1` [A-112] the value was under 0.1 µM.
For the compound `Cc1cncc(-n2ccc3cc(C(=O)N4CCCCC4)cnc32)c1` [A-113], the IC50 was under 0.1 µM.
`N#Cc1ccc(-n2ccc3cc(C(=O)N4CCC(F)CC4)cnc32)cc1` [A-114]: the IC50 was under 0.1 µM.
For `N#Cc1cccc(-n2ccc3cc(C(=O)N4CCC(F)CC4)cnc32)c1` [A-115] the value was under 0.1 µM; for `CN(C)c1ccc(-n2ccc3cc(C(=O)N4CCCCC4)cnc32)cn1` [A-116], under 0.1 µM.
With `N#Cc1ccc(-n2ccc3cc(C(=O)N4CCCCC4)cnc32)cn1` [A-117], the IC50 is under 0.1 µM.
Take `N#Cc1ncc(-n2ccc3cc(C(=O)N4CCCCC4)cnc32)cn1` [A-118]: the half-maximal inhibitory concentration (IC50) is under 0.1 µM.
For `O=C(c1cnc2c(ccn2-c2ccc3[nH]ncc3c2)c1)N1CCCCC1` [A-119, (1-(1H-indazol-5-yl)-1H-pyrrolo[2,3-b]pyridin-5-yl)(piperidin-1-yl)methanone] the value was under 0.1 µM; for `COc1ccc(Cn2ncc3cc(-n4ccc5cc(C(=O)N6CCCCC6)cnc54)ccc32)cc1` [A-120], under 0.1 µM.
Take `COc1ccc(Cn2cc3cc(-n4ccc5cc(C(=O)N6CCCCC6)cnc54)ccc3n2)cc1` [A-121]: the IC50 was under 0.1 µM.
For `NC(=O)c1ccc(-n2ccc3cc(C(=O)N4CCC(F)CC4)cnc32)cc1` [A-122] the value was under 0.1 µM; for `NC(=O)c1cccc(-n2ccc3cc(C(=O)N4CCC(F)CC4)cnc32)c1` [A-123], under 0.1 µM; for `NC(=O)c1ccc(-n2ccc3cc(C(=O)N4CCCCC4)cnc32)cn1` [A-124], under 0.1 µM.
For `NC(=O)c1ncc(-n2ccc3cc(C(=O)N4CCCCC4)cnc32)cn1` [A-125] the value was under 0.1 µM; for `NC(=O)c1ccc(-n2ccc3cc(C(=O)N4CCC(F)(F)CC4)cnc32)cc1` [A-126], under 0.1 µM.
The same measure for `O=C(c1cnc2c(ccn2-c2ccc(CO)cc2)c1)N1CCC(F)CC1` [A-127]: under 0.1 µM; for `O=C(c1cnc2c(ccn2-c2cccc(CO)c2)c1)N1CCC(F)CC1` [A-128]: under 0.1 µM; for `CC(C)(O)c1ccc(-n2ccc3cc(C(=O)N4CCCCC4)cnc32)cc1` [A-130]: under 0.1 µM.
Regarding `COc1ccc(-n2ccc3cc(C(=O)N4CCC(c5ccccc5)CC4)cnc32)cc1` [A-134], the IC50 is at least 1 µM.
Consider `COc1ccc(-n2ccc3cc(C(=O)N4CC(c5ccccc5)C4)cnc32)cc1` [A-135], for which the concentration for half-maximal inhibition (IC50) was at least 1 µM.
As for `COc1ccc(-n2ccc3cc(C(=O)N4CCN(CC(F)(F)F)CC4)cnc32)cc1` [A-136], the IC50 is at least 1 µM.
Turning to `COc1ccc(-n2ccc3cc(C(=O)N4C[C@H](C)C[C@H](C)C4)cnc32)cc1` [A-138, ((3R,5S)-3,5-dimethylpiperidin-1-yl)(1-(4-methoxyphenyl)-1H-pyrrolo[2,3-b]pyridin-5-yl)methanone], the IC50 was under 0.1 µM.
The same measure for `COCCNC(=O)c1ccc(-n2ccc3cc(C(=O)N4CCCCC4)cnc32)cc1` [A-139]: under 0.1 µM; for `CNC(=O)c1ccc(-n2ccc3cc(C(=O)N4CCCCC4)cnc32)cc1` [A-140]: under 0.1 µM; for `CN(C)C(=O)c1ccc(-n2ccc3cc(C(=O)N4CCCCC4)cnc32)cc1` [A-141]: under 0.1 µM.
Take `COc1ccc(-n2ccc3cc(C(=O)N4CCC(F)CC4)cnc32)cc1` [A-142]: the IC50 was under 0.1 µM.
The same measure for `COc1cccc(-n2ccc3cc(C(=O)N4CCCCC4)cnc32)c1` [A-143]: under 0.1 µM.
As to `O=C(c1cnc2c(ccn2-c2cncc(Cl)c2)c1)N1CCCCC1` [A-144], the IC50 is under 0.1 µM.
For `COc1cncc(-n2ccc3cc(C(=O)N4CCCCC4)cnc32)c1` [A-145] the value was under 0.1 µM; for `COc1ccc(-n2ccc3cc(C(=O)N4CCCCC4)cnc32)cc1` [A-146], under 0.1 µM.
Turning to `N#Cc1ccc(-n2ccc3cc(C(=O)N4CCCCC4)cnc32)cc1` [A-147], the IC50 was under 0.1 µM.
Take `N#Cc1cccc(-n2ccc3cc(C(=O)N4CCCCC4)cnc32)c1` [A-148]: the IC50 is under 0.1 µM.
As for `CN(C)c1cccc(-n2ccc3cc(C(=O)N4CCCCC4)cnc32)c1` [A-149], the IC50 is under 0.1 µM.
The same measure for `CN(C)c1ccc(-n2ccc3cc(C(=O)N4CCCCC4)cnc32)cc1` [A-150]: under 0.1 µM.
Consider `CCOc1ccc(-n2ccc3cc(C(=O)N4CCCCC4)cnc32)cc1` [A-151], for which the IC50 is under 0.1 µM.
`CS(=O)(=O)c1cccc(-n2ccc3cc(C(=O)N4CCCCC4)cnc32)c1` [A-152]: the half-maximal inhibitory concentration (IC50) was under 0.1 µM.
For `CS(=O)(=O)c1ccc(-n2ccc3cc(C(=O)N4CCCCC4)cnc32)cc1` [A-153] the value was under 0.1 µM; for `Nc1cc(-n2ccc3cc(C(=O)N4CCCCC4)cnc32)ccn1` [A-154], under 0.1 µM; for `O=C(c1cnc2c(ccn2-c2ccc(O)nc2)c1)N1CCCCC1` [A-155], under 0.1 µM.
In the case of `Nc1cncc(-n2ccc3cc(C(=O)N4CCCCC4)cnc32)c1` [A-156], the IC50 is under 0.1 µM.
Take `COc1ccc(-n2ccc3cc(C(=O)N4CCCCC4)cnc32)cn1` [A-157]: the IC50 is under 0.1 µM.
Regarding `Nc1ccc(-n2ccc3cc(C(=O)N4CCCCC4)cnc32)cn1` [A-158], the IC50 is under 0.1 µM.
For the compound `NC(=O)c1ccc(-n2ccc3cc(C(=O)N4CCCCC4)cnc32)cc1` [A-159], the IC50 was under 0.1 µM.
As to `NC(=O)c1cccc(-n2ccc3cc(C(=O)N4CCCCC4)cnc32)c1` [A-160], the IC50 was under 0.1 µM.
In the case of `NCc1ccc(-n2ccc3cc(C(=O)N4CCCCC4)cnc32)cc1` [A-162], the IC50 is under 0.1 µM.
For the compound `O=C(c1cnc2c(ccn2-c2ccc(CO)cc2)c1)N1CCCCC1` [A-163], the IC50 was under 0.1 µM.
Regarding `O=C(c1cnc2c(ccn2-c2cccc(CO)c2)c1)N1CCCCC1` [A-164], the IC50 is under 0.1 µM.

These data come from US20230390274A1 (EPIRIUM BIO INC., priority 2020, published 2023).
